Measurements: patent publication US5162201A, “Analytical method making use of monoglyceride lipase” (priority 1987, dated 1992)

What was measured:
[1] = tested on: monoglyceride lipase of this invention; experiment: Substrate specificity of the monoglyceride lipase; type: biochemical, Bacillus stearothermophilus H-165; details: named substance used as substrate
Protocol: (8) Substrate specificity: The substrate specificity of the monoglyceride lipase of this invention was investigated under conditions which followed the below-described measurement method of enzymatic activity for the monoglyceride lipase of this invention.
(§1) To 0.4 ml of a reaction solution of the above composition, 50 μl of 10 mM monolaurin (0.5% aqueous solution of "Triton X-100") was added. The resultant mixture was provisionally heated at 37° C. for 2-3 minutes and 50 μl of an enzyme solution was added to initiate a reaction. Exactly 10 minutes later, 2.5 ml of 0.5% SDS (sodium dodecyl suflate) was added to terminate the reaction. The absorbance was measured at a wavelength of 550 nm. Regarding the enzymatic activity, the activity capable of producing 1 μmole of glycerol per minute was defined as 1 Unit (1 U). The following equation will be followed upon calculation of enzymatic activity (potency) by this measurement method of enzymatic activity. [formula] ΔA 550: Absorbance at the wavelength of 500 nm 2.95: Total volume of reaction mixture (ml)

[2] = tested on: monoglyceride lipase of this invention; experiment: Glycerol liberated from α,β-diglycerides by pancreatic lipase plus monoglyceride lipase; type: biochemical, Bacillus stearothermophilus H-165; details: for glycerol liberated from the α,β-diglyceride substrate: α-position hydrolyzed by pancreatic lipase, then monoglyceride lipase of this invention on the β-monoglyceride formed
Protocol: 2) Substrate specificity of the monoglyceride lipase upon use of α,β-diglyceride as a substrate:
i) The below-described α,β-diglycerides were separately employed as substrates. Their α-positions were hydrolyzed by using pancreatic lipase and the monoglyceride lipase of this invention was caused to act on β-monoglycerides thus formed. Thereafter, glycerol thus liberated was analyzed.

[3] = tested on: monoglyceride lipase of this invention; experiment: Effects of surface active agents and metal ions on the monoglyceride lipase; type: biochemical, Bacillus stearothermophilus H-165; details: for Activity of lipase (%): not added = 100, 10 min
Protocol: as §1, with “activity.” for “activity. [formula] ΔA 550: Absorbance at the wavelength of 500 nm 2.95: Total volume of reaction mixture (ml)”

[4] = Confirmation by HPLC of fatty acid liberated from α-linoleoyl-β-oleoyl-diglyceride; type: biochemical; details: 37° C., 10 minutes, pH 8.3; monoglyceride lipase (0.5 U) added to the pancreatic lipase reaction solution
Protocol: 1) Confirmation of a fatty acid liberated from α-linoleoyl-β-oleoyl-diglyceride as a substrate, by high performance liquid chromatography (HPLC): i) Pancreas-derived lipase (50 μl) was added to 1.0 ml of a reaction solution having a composition of 0.5 mg of α-linoleoyl-β-oleoyl-diglyceride, 1.8 mg of a non-ionic surface active agent ("Triton X-100", trade name; product of Sigma Chemical Company), 3.8 mg of deoxycholic acid, 20 U of colipase, 0.15 mg of calcium chloride, and 200 μl of 0.1 M N-tri(hydroxymethyl) methyl-3-aminopropanesulfonic acid (TAPS)-NaOH (pH 8.3). After allowing them to react at 37° C. for 10 minutes, the reaction was terminated. A 15 μl aliquot of the reaction mixture was applied on a column and was then analyzed by high performance liquid chromatography under the following conditions.
Column: "Zorbox ODS" (trade name; 4.6 mm.phi.×25 cm)
Solvent: acetonitrile:H2 O (96:4)
Detection: ultraviolet absorption at 205 nm […]
ii) The monoglyceride lipase (0.5 U) was added to a reaction solution of the same composition as that employed above. A fatty acid liberated in substantially the same manner was detected by high performance liquid chromatography. As a result, linoleic acid and oleic acid were confirmed at the retention times of 23 minutes and 31 minutes respectively.

CCCCCCCCCCCC(=O)OCC(O)CO (stereo not shown) [Monolaurin]
activity against the substrate (in words) [1]: maximum activity

CCCCCCCC/C=C\CCCCCCCC(=O)OC(CO)COC(=O)CCCCCCCCCCCCCCC (stereo not drawn) [α-palmitoyl-β-oleoyldiglyceride]
glycerol liberated from the α,β-diglyceride substrate [2]: glycerol was detected

CCCCC/C=C\C/C=C\CCCCCCCC(=O)OCC(O)COC(=O)CCCCCCC/C=C\C/C=C\CCCCC [1,3-dilinolein]
glycerol hydrolyzed from the substrate in the presence of the monoglyceride lipase [1]: not detected

CCCCC/C=C\C/C=C\CCCCCCCC(=O)OCC(CO)OC(=O)CCCCCCC/C=C\C/C=C\CCCCC (stereo not drawn) [α,β-dilinoleylglyceride]
glycerol liberated from the α,β-diglyceride substrate [2]: glycerol was detected

CCCCCCCC/C=C\CCCCCCCC(=O)OC(CO)CO [Monoolein (β-monoglyceride), Monoolein]
Activity of lipase (%) ([1]; Monolaurin = 100.0): 75.6%

[Ca+2].[Cl-].[Cl-] [CaCl2]
effect of addition on the activity of the monoglyceride lipase (in words) [3]: not affected

C[C@H](CCC(=O)O)[C@H]1CC[C@H]2[C@@H]3[C@H](O)C[C@@H]4C[C@H](O)CC[C@]4(C)[C@H]3C[C@H](O)[C@]12C [Cholic acid]
effect of addition on the activity of the monoglyceride lipase (in words) [3]: inhibition of the activity is observed in a high concentration range

CCCCCCCC/C=C\CCCCCCCC(=O)OCC(COC(=O)CCCCCCC/C=C\CCCCCCCC)OC(=O)CCCCCCC/C=C\CCCCCCCC [Triolein]
glycerol hydrolyzed from the substrate in the presence of the monoglyceride lipase [1]: not detected

CCCCC/C=C\C/C=C\CCCCCCCC(=O)OCC(CO)OC(=O)CCCCCCC/C=C\C/C=C\CCCCC (stereo not shown) [1,2-dilinolein]
glycerol hydrolyzed from the substrate in the presence of the monoglyceride lipase [1]: not detected

[Cl-].[Cl-].[Mg+2] [MgCl2]
effect of addition on the activity of the monoglyceride lipase (in words) [3]: not affected

CCCCCCCC/C=C\CCCCCCCC(=O)OCC(CO)OC(=O)CCCCCCCCCCCCCCC (stereo not drawn) [α-oleyl-β-palmitoyldiglyceride]
glycerol liberated from the α,β-diglyceride substrate [2]: glycerol was detected

Triton X-100
effect of addition on the activity of the monoglyceride lipase (in words) [3]: inhibition of the activity is observed in a high concentration range
Activity of lipase (%) ([3]; reagent concentration 0.1%): 81.7%
Activity of lipase (%) ([3]; reagent concentration 0.5%): 46.5%

B1: pancreatic lipase: pancreas-derived lipase that hydrolyzes the α-position of α,β-diglyceride (protein, UniProt P00591 1-450, looked up)
Pancreatic triacylglycerol …: SEVCFPRLGCFSDDAPWAGIVQRPLKILPWSPKDVDTRFLLYTNQNQNNYQELVADPSTITNSNFRMDRKTRFIIHGFIDKGEEDWLSNICKNLFKVESVNCICVDWKGGSRTGYTQASQNIRIVGAEVAYFVEVLKSSLGYSPSNVHVIGHSLGSHAAGEAGRRTNGTIERITGLDPAEPCFQGTPELVRLDPSDAKFVDVIHTDAAPIIPNLGFGMSQTVGHLDFFPNGGKQMPGCQKNILSQIVDIDGIWEGTRDFVACNHLRSYKYYADSILNPDGFAGFPCDSYNVFTANKCFPCPSEGCPQMGHYADRFPGKTNGVSQVFYLNTGDASNFARWRYKVSVTLSGKKVTGHILVSLFGNEGNSRQYEIYKGTLQPDNTHSDEFDSDVEVGDLQKVKFIWYNNNVINPTLPRVGASKITVERNDGKVYDFCSQETVREEVLLTLNPC
position of α,β-diglyceride / monoglyceride acted on, from the fatty acid liberated [4]: act on the α-position of α,β-diglyceride
glycerol liberated from the α,β-diglyceride substrates ([2]; pancreatic lipase used singly): glycerol was not detected
